In US20250223171A1, “ALLOTROPE OF CARBON HAVING INCREASED ELECTRON DELOCALIZATION” (Structured Nano Carbon LLC, priority 2017, published 2025):

Assays:
rat = settings: cited from earlier work
[1] = Antioxidant behavior of C60 fullerene compared with vitamin C (reported); settings: 60 atoms for C60 fullerene versus six for vitamin C
Source text: Antioxidant behavior has been reported in C60 fullerene as being 172 times that of vitamin C or ascorbic acid.
The reported factor of 172 times greater than vitamin C can be partially explained by C60 fullerene having 60 carbons over which electron delocalization can proceed versus only six atoms of a mixture of half and half carbon and oxygen for vitamin C. If it were just numbers of atoms over which electron delocalization proceeds in its effectiveness in stabilizing unpaired electrons arising from ROS, one would expect that the potency of C60 fullerene would be only ten times that of vitamin C. Phenolics involve only seven atoms for stabilizing unpaired electrons of six carbons from the benzene ring plus the phenolic oxygen atom and thus C60 fullerene would then be expected to be a bit less than ten times that of phenolic antioxidants.
The reported 172 factor superiority of C60 fullerene in antioxidant behavior over vitamin C or ascorbic acid cannot be accounted for on the basis of individual atoms involved in the delocalization network alone. […] So, there must be something exceptional about the electron delocalization involving 3D fullerene concentric shells over 2D ascorbic acid or phenolics. There are several explanations for the superiority of 3D fullerene systems especially of the fullerene CNO systems: […]

In the case of c12c3c4c5c1c1c6c7c2c2c8c3c3c9c4c4c%10c5c5c1c1c6c6c%11c7c2c2c7c8c3c3c8c9c4c4c9c%10c5c5c1c1c6c6c%11c2c2c7c3c3c8c4c4c9c5c1c1c6c2c3c41 [C60 fullerene], the life expectancy (rat) is listed as “nearly doubling of life expectancy” and the “superiority in antioxidant behavior over ascorbic acid, taking into account the number of atoms in the electron delocalization network” value [1] is listed as 17.2 factor.
